Test results published in patent publication EP0618905B1, “IMIDAZOLYL-ALKYL-PIPERAZINE AND -DIAZEPINE DERIVATIVES AS HISTAMINE H3 AGONISTS/ANTAGONISTS” (SCHERING CORPORATION, priority 1991, dated 1993).
pKi: −log10 of the molar value.

What was measured:
H₃ receptors = biological target: T1, H₃ receptors (Cavia porcellus, UniProt Q9JI35); test: H3 Receptor Binding Assay; details: guinea pig brain membranes; for pKi: 3 nM [³H]R-α-methylhistamine or [³H]-N-methylhistamine, 30° for 30 min; for H3 Binding (inhibition of the specific binding of radioactive ligand): final concentration 2 µg/mL with 0.1% DMSO, not serially diluted (70% or less inhibition)
T1 construct: The source of the H₃ receptors in this experiment was guinea pig brain; from tissue; host or cells: guinea pig brain membranes
Procedure: H₃ Receptor Binding Assay
The source of the H₃ receptors in this experiment was guinea pig brain. The animals used weighed 400-600 g. The tissue was homogenized using a Polytron in a solution of 50 mM Tris, pH 7.5. The final concentration of tissue in the homogenization buffer was 10% w/v. The homogenates were centrifuged at 1000 x g for 10 min. in order to remove clumps of tissue and debris. The resulting supernatants were then centrifuged at 50,000 x g for 20 min. in order to sediment the membranes, which were nest washed 3 times in homogenization buffer (50,000 x g for 20 min. each). The membranes were frozen and stored at -70°C until needed.
All compounds to be tested were dissolved in DMSO and then diluted into the binding buffer (50 mM Tris, pH 7.5) such that the final concentration was 2 µg/mL with 0.1% DMSO. Membranes were then added (400 µg of protein) to the reaction tubes. The reaction was started by the addition of 3 nM [³H]R-α-methylhistamine (8.8 Ci/mmol) or [³H]-N-methylhistamine (80 Ci/mmol) and incubated at 30° for 30 min. Bound ligand was separated from unbound ligand by filtration, and the amount of radioactive ligand bound to the membranes was quantitiated by liquid scintillation spectrometry.

[1] = biological target: H₃ receptors in rat brain (Rattus norvegicus, UniProt Q9QYN8); details: complete agonists of the H₃ receptors; cited from earlier work
Sequence of H₃ receptors in rat brain (Q9QYN8 whole entry): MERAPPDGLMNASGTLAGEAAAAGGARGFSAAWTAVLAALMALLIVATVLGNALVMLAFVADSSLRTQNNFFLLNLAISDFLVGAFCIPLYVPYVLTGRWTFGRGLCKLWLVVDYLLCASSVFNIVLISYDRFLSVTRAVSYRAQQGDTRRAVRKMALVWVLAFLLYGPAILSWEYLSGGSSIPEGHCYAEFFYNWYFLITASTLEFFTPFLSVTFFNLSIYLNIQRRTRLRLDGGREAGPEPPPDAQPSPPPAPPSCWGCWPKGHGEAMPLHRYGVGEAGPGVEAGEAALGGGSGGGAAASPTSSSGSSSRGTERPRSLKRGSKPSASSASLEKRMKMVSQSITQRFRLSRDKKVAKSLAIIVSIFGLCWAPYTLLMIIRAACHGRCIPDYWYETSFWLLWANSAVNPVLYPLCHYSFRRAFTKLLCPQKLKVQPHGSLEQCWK

T1 sequence (Q9JI35 whole entry): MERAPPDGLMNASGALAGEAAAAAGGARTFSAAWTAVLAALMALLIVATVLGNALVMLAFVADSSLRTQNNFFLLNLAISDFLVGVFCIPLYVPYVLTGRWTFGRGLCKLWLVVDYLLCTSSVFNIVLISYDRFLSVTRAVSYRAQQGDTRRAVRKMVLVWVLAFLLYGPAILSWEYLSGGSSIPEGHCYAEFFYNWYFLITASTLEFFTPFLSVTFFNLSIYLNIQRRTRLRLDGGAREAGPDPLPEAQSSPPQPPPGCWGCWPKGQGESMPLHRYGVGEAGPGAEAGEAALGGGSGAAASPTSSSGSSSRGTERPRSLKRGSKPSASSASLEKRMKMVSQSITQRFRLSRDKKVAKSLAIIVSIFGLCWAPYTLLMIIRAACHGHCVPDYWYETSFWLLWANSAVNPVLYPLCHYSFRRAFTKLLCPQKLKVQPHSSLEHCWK

| Structure (SMILES) | pKi (H₃ receptors) | H3 Binding (inhibition of the specific binding of radioactive ligand) (H₃ receptors) | other results |
| --- | --- | --- | --- |
| c1nc(CN2CCNCC2)c[nH]1 | 8.33 | – | – |
| CC1CN(Cc2c[nH]cn2)C(C)CN1 (stereo not drawn) | – | 6% | – |
| C[C@@H]1CN(Cc2c[nH]cn2)C[C@H](C)N1 | – | 24% | – |
| c1nc(CN2CCCNCC2)c[nH]1 | 7.06 | – | – |
| NCCc1c[nH]cn1 [(a*), reference compound] | 7.85 | – | – |
| NCCc1c[nH]cn1 [histamine] | – | – | maximal inhibition of release [1]: approximately 60% |
